From patent US20240261248A1, “METHODS FOR TREATING AUTISM SPECTRUM DISORDERS (ASD)” (SK BIOPHARMACEUTICALS CO., LTD., priority 2021, published 2024)

Key:
[1] = system: MeCP2 KO mouse primary cortical neurons; assay: Morphological recovery of MeCP2 KO primary neuron: neurite outgrowth (MAP2 immunostaining, DIV5); format: cell-based; conditions: Test compound 80 and 2000 nM from DIV1, analysed at DIV5; BDNF 50 ng/ml as comparator; FIG. 1
Description: (§1) MeCP2 KO mouse primary cortical neurons were cultured at PO and morphological change was analyzed via immunocytochemistry.
BDNF (50 ng/ml) or Test compound (80 and 2000 nM) was treated from DIV1 to indicated days. At DIV5, the neurite outgrowth was analyzed with MAP2 immunostaining for analysis of neurite formation.

[2] = system: MeCP2 KO mouse primary cortical neurons; assay: Morphological recovery of MeCP2 KO primary neuron: synaptogenesis and soma size (Synapsin-1, MAP2, Hoechst, DIV14); format: cell-based; conditions: Test compound 1000 nM from DIV1, analysed at DIV14
Description: as §1
BDNF (50 ng/ml) or Test compound (1000 nM) was treated from DIV1 to indicated days. At DIV14, synaptogenesis and soma size were analyzed with Synapsin-1, MAP2 immunostaining and nuclear staining with Hoechst.

[3] = system: MeCP2 knockout mice (Null); assay: Survival rate test in MeCP2 knockout mice (Null); format: in vivo, mouse
Description: Vehicle Null group: vehicle (0.9% saline, 10 ml/kg)
Test compound Null group: 100 mg/kg, po in 0.9% saline
About 5 week old Null mice were treated with daily oral injections of the vehicle or Test compound. MeCP2 knockout mice (Null) survival rate test was conducted until all animals were dead.
ILS ([…])%: 100×(median survival days of test group-median survival days of vehicle group)/median survival days of vehicle group (FIG. 4).

[4] = Body weight change in MeCP2 KO mice (HET); format: in vivo, mouse; conditions: 100 mg/kg po daily from about 5 weeks to 16 weeks old, FIG. 5
Description: Vehicle WT group: vehicle (0.9% saline, 10 ml/kg)
Vehicle HET group: vehicle (0.9% saline, 10 ml/kg)
Test compound HET group: 100 mg/kg, po in 0.9% saline
About 5 week old WT and HET mice were treated with daily oral injections of the vehicle or Test compound. Treatment conducted until the mice became 16 weeks old.

[5] = system: MeCP2 KO mice (HET); assay: Accelerating rotarod test in MeCP2 KO mice (HET); format: in vivo, mouse; conditions: accelerating speed 0-40 rpm over 5 min, compared to vehicle-treated HET mice, FIG. 6
Source text: The rotarod test is widely used to evaluate the motor coordination of rodents, and is especially sensitive in detecting cerebellar dysfunction. The motor performance on the rotarod can be influenced by several factors, such as motor coordination, learning and cardiopulmonary endurance. Since several studies have shown that basal ganglia are essential in motor skill learning of serial motor sequence. The test measures parameters such as riding time (seconds) or endurance (RPM).
Mice were placed on the rotarod apparatus (Ugo basile, Italy) consisting of a rod that rotates at a constant or variable and accelerating speed of 4 rpm. Once a mouse loses its balance and falls onto an underlying platform, the timer automatically stops. Mice were exposed to the apparatus for 5 min training at a constant speed (4 rpm) and placed back on the rod after each fell. After a rest period of at least 1 hr, animals were placed back on the rotarod apparatus for testing. Once all animals in a test session were loaded on the rod, the rotarod apparatus was placed on accelerating speed (0-40 rpm) over 5 min and then the first falling time was recorded. The test was repeated three consecutive times per animal. For each test session, the RPM score at time of fall off the rod were recorded.

[6] = system: MeCP2 KO mice (HET); assay: Hindlimb clasping test in MeCP2 KO mice (HET); format: in vivo, mouse; conditions: 100 mg/kg, compared to vehicle-treated HET mice, FIG. 7

NC(=O)OC[C@H](N)Cc1ccccc1 [Test compound, (R)-(beta-amino-benzenepropyl) carbamate]
neurite length (neurite outgrowth) [1]: significantly enhanced the neurite length to a level similar to that of BDNF | synaptogenesis ([2]; FIG. 2): significantly enhanced | soma size ([2]; FIG. 3): significantly enhanced | increase of ILS % ([3]; 100 mg/kg po daily from about 5 weeks old, compared to vehicle-treated Null mice, FIG. 4): 42.7% | life span ([3]; 100 mg/kg po daily, vs vehicle, P<0.0046, Log lank test): significant enhancement of life span | body weight change [4]: did not affect the body weight change | speed at fall (RPM score) [5]: fell at higher speeds | time to fall off from the rod [5]: took more time to fall off from the rod | clasping [6]: clasped less than vehicle-treated HET mice
